Measurements as given in patent US20040258662A1, “Antineoplastic agents” (Wyeth, priority 2003, published 2004).

Columns and labels:
[1] = tested on: HTB-44 human renal tumor; experiment: HTB-44 human renal tumor xenograft test procedure in nude mice; type: in vivo; parameters: Tumor mass, % of vehicle control, Week 0 / Tumor mass, % of vehicle control, Week 2 / Tumor mass, % of vehicle control, Week 4: concentration or dose not given beside the values; settings: for effect on tumor growth (in words): CCI-779 25 mg/kg iv weekly or IFN-α 1 million units ip 3 times per week; for Tumor mass, Week 0 / Tumor mass, Week 2 / Tumor mass, Week 4 / Tumor mass, Week 5: CCI-779 25 mg/kg iv once per week; for Tumor mass, Week 0 / Tumor mass, Week 2 / Tumor mass, Week 4: IFN-α 1 × 10^6 units ip 3 times per week; for Tumor mass, Week 0: 4 weeks, tumors about 600 mg at start; for Tumor mass, % of vehicle control, Week 0 / Tumor mass, % of vehicle control, Week 2 / Tumor mass, % of vehicle control, Week 4 / Tumor mass, % of vehicle control, Week 5: same dosing as the tumor mass values; for Tumor mass, Week 5: IFN-α 1 × 10^6 units ip 3 times per week for 4 weeks
Description: CCI-779 was evaluated in combination with Interferon-alpha (IFN-α) in the HTB44 human mouse xenograft standard pharmacological test procedure of renal cancer. The human renal cell line HTB-44 (also referred to in the scientific literature as A498) is derived from a patient with a clear cell carcinoma that had lost expression of the von Hippel-Lindau (VHL) gene. These types of tumors are representative of the large majority (≈80%) of sporadic renal cell carcinomas.
CCI-779 was evaluated as a single agent on a weekly schedule against large (>500mg) HTB-44 tumors in nude mouse xenografts. Dosing was from 10 mg/kg to 75 mg/kg intravenously once a week beginning on day 0 when tumors had reached a size of about 500 mm^3.
Similarly, a dose response of IFN-α as a single agent was performed. […] Therefore, a dose of 1 million units 3 times per week intraperitoneally was chosen to combine with CCI-779 at 25 mg/kg iv once per week. Groups of 10 mice were treated with CCI-779 alone, IFN-α alone, or the combination (Table 1). IFN-α was given on days 1, 3, and 5 and CCI-779 on day 6 of each week for 4 weeks. Dosing began after tumors had reached a size of about 600 mg.

[2] = tested on: advanced RCC; experiment: Phase 1 open-label ascending-dose study of CCI-779 plus IFN in RCC patients; type: in vivo
Description: Thus, the combination of CCI-779 and IFN was evaluated in RCC patients (pts) in a phase 1 study.
In an open-label, ascending-dose, single-arm study, CCI-779 was given IV once weekly, with IFN given subcutaneously 3 times weekly. IFN was given alone the 1st treatment week. The starting dose levels were 6 million units (MU) IFN and 5 mg CCI-779. CCI-779 dose-escalation steps were 10 mg, 15 mg, and 25 mg. Once the maximum dose of CCI-779 is determined, the dose level of IFN can be escalated to 9 MU (at a reduced CCI-779 dose, if necessary). Dose escalation was based on a safety evaluation of pts (≧6/cohort) after 4 weeks of treatment.
Up to 40 patients are being evaluated at the maximum tolerated dose (MTD). In summary, 71 pts with advanced RCC were enrolled; 27 continue treatment. Patients (73% men, 27% women) had ECOG performance status of 0: 53% and 1: 46% and median age of 59 yrs (range, 35-80); 45% had prior IL-2 treatment. In dose escalation, patients received 6 MU IFNα with CCI-779 at 5 mg (7 pts), 10 mg (6), 15 mg (6), 20 mg (6), or 25 mg (7); 6 pts also received 9 MU IFNα with 15 mg CCI-779. […] To date, 33 additional patients have been accrued at the MTD. […] CCI-779-related adverse events with overall frequency ≧5% (n=53) were leukopenia (25%), hyperlipidemia (15%), asthenia (13%), AST increase (8%), mucositis (6%), anemia (6%), thrombocytopenia (6%), and rash (6%). Four patients were removed from study due to CCI-779-related toxicity. Approximately 50% of MTD patients have required CCI-779 dose reductions in subsequent cycles. Median time on treatment for all cohorts was 7 mo, 36 have continued for >6 mo of whom 9 have continued for >12 mo. Preliminary tumor responses (RECIST) in 55 pts were confirmed partial response, 7 pts (13%); stable disease, 39 (71%, 19 pts ≧6 mo); and progressive disease, 9 (16%).

[3] = Stability of CCI-779 in parenteral cosolvent formulation; type: physicochemical; settings: citric acid at a concentration of less than 0.01% w/v
From the text: In this embodiment, the stability of CCI-779 in parenterally acceptable alcoholic cosolvents is enhanced by addition of an antioxidant to the formulation. Acceptable antioxidants include, but are not limited to, citric acid, d,l-α-tocopherol, BHA, BHT, monothioglycerol, ascorbic acid, propyl gallate, and mixtures thereof. Generally, the parenteral formulations useful in this embodiment of the invention will contain an antioxidant component(s) in a concentration ranging from 0.001% to 1% w/v, or 0.01% to 0.5% w/v, of the cosolvent concentrate, although lower or higher concentrations may be desired. Of the antioxidants, d,l-α-tocopherol is particularly desirable and is used at a concentration of 0.01 to 0.1% w/v with a preferred concentration of 0.075% w/v of the cosolvent concentrate.
Examples of such chelating agents include, e.g., citric acid, acetic acid, and ascorbic acid (which may function as both a classic antioxidant and a chelating agent in the present formulations). Other chelating agents include such materials as are capable of binding metal ions in solution, such as ethylene diamine tetra acetic acid (EDTA), its salts, or amino acids such as glycine are capable of enhancing the stability of CCI-779. […] Optimal concentrations for the selected antioxidant(s) can be readily determined by one of skill in the art, based upon the information provided herein.

[4] = tested on: tumor cells; settings: cited from earlier work
[5] = tested on: human tumor xenografts; settings: nude mice, cited from earlier work
[6] = tested on: human glioblastoma cell line; settings: in vitro; cited from earlier work

With Interferon α [reference compound] the “single agent dose response, effectiveness” value ([1]; 1 million units or 0.5 million units 3 times per week, data not shown) was “similarly effective”, the “effect on tumor growth (in words)” value ([1]; single agent) was “retardation of tumor growth without tumor regression” and the “Tumor mass, Week 0” value [1] was 586 mg. For the same compound, the “Tumor mass, % of vehicle control, Week 0” value [1] was 100%, the “Tumor mass, Week 2” value [1] was 682 mg and the “Tumor mass, % of vehicle control, Week 2” value [1] was 66%. The “Tumor mass, Week 4” value [1] was 957 mg, the “Tumor mass, % of vehicle control, Week 4” value [1] was 48% and the “Tumor mass, Week 5” value [1] was 1280 mg. For the same compound, the “Tumor mass, % of vehicle control, Week 5” value [1] was 57%.
For `CO[C@H]1C[C@@H]2CC[C@@H](C)[C@@](O)(O2)C(=O)C(=O)N2CCCC[C@H]2C(=O)O[C@H]([C@H](C)C[C@@H]2CC[C@@H](OC(=O)C(C)(CO)CO)[C@H](OC)C2)CC(=O)[C@H](C)/C=C(\C)[C@@H](O)[C@@H](OC)C(=O)[C@H](C)C[C@H](C)/C=C/C=C/C=C/1C` [CCI-779, Rapamycin 42-ester with 3-hydroxy-2-(hydroxymethyl)-2-methylpropionic acid], the “inhibition of tumor growth” value ([1]; single agent, 10 mg/kg to 75 mg/kg iv once a week, tumors about 500 mm^3 on day 0, all doses) was 30-35%, the “tumor regression at three fold higher dose” value ([1]; single agent, 75 mg/kg) was “did not induce tumor regression” and the “effect on tumor growth (in words)” value ([1]; single agent) was “retardation of tumor growth without tumor regression”. For the same compound, the “Tumor mass, Week 0” value [1] was 589 mg, the “Tumor mass, % of vehicle control, Week 0” value [1] was 100% and the “Tumor mass, Week 2” value [1] was 825 mg. For the same compound, the “Tumor mass, % of vehicle control, Week 2” value [1] was 80%, the “Tumor mass, Week 4” value [1] was 1382 mg and the “Tumor mass, % of vehicle control, Week 4” value [1] was 69%. For the same compound, the “Tumor mass, Week 5” value [1] was 1539 mg, the “Tumor mass, % of vehicle control, Week 5” value [1] was 68% and the “MTD patients requiring CCI-779 dose reductions in subsequent cycles” value ([2]; at MTD 15 mg CCI-779, 6 MU IFNα) was “Approximately 50%”. For the same compound, the “Grade 34 CCI-779-related adverse events, frequency: AST increase” value ([2]; both, human, in vivo) was 8%, the “Grade 34 CCI-779-related adverse events, frequency: anemia” value ([2]; both, human, in vivo) was 6% and the “Grade 34 CCI-779-related adverse events, frequency: asthenia” value ([2]; both, human, in vivo) was 13%. For the same compound, the “Grade 34 CCI-779-related adverse events, frequency: hyperlipidemia” value ([2]; both, human, in vivo) was 15%, the “Grade 34 CCI-779-related adverse events, frequency: leukopenia” value ([2]; both, human, in vivo) was 25% and the “Grade 34 CCI-779-related adverse events, frequency: mucositis” value ([2]; both, human, in vivo) was 6%. The “Grade 34 CCI-779-related adverse events, frequency: rash” value ([2]; both, human, in vivo) was 6%, the “Grade 34 CCI-779-related adverse events, frequency: thrombocytopenia” value ([2]; both, human, in vivo) was 6% and the “CCI-779-related adverse events, frequency: anemia” value ([2]; human, in vivo) was 33%. For the same compound, the “CCI-779-related adverse events, frequency: anorexia” value ([2]; human, in vivo) was 33%, the “CCI-779-related adverse events, frequency: asthenia” value ([2]; human, in vivo) was 39% and the “CCI-779-related adverse events, frequency: chills” value ([2]; human, in vivo) was 22%. For the same compound, the “CCI-779-related adverse events, frequency: diarrhea” value ([2]; human, in vivo) was 28%, the “CCI-779-related adverse events, frequency: fever” value ([2]; human, in vivo) was 22% and the “CCI-779-related adverse events, frequency: hyperlipidemia” value ([2]; human, in vivo) was 28%. For the same compound, the “CCI-779-related adverse events, frequency: leukopenia” value ([2]; human, in vivo) was 22%, the “CCI-779-related adverse events, frequency: nausea” value ([2]; human, in vivo) was 39% and the “CCI-779-related adverse events, frequency: taste perversion” value ([2]; human, in vivo) was 22%. The “Gr 3-4 CCI-779-related AEs: hyperglycemia, number of pts” value ([2]; human, in vivo) was 2 pts, the “Gr 3-4 CCI-779-related AEs: hyperlipidemia, number of pts” value ([2]; human, in vivo) was 4 pts and the “Gr 3-4 CCI-779-related AEs: leukopenia, number of pts” value ([2]; human, in vivo) was 3 pts. For the same compound, the “patients removed from study due to CCI-779-related toxicity” value ([2]; human, in vivo) was “Four”, the “CCI-779-related adverse events, frequency: mucositis” value ([2]; preliminary results, n=18, CCI-779 5-25 mg IV once weekly with IFN 6 MU sc 3 times weekly) was 44% and the “CCI-779-related adverse events, frequency: allergic reaction” value ([2]; preliminary results, n=18, with IFN) was 22%. The “stability of CCI-779 with citric acid” value [3] was “enhanced the stability”, the “growth of tumor cells in vitro” value ([4]; CNS cancer, leukemia (T-cell), breast, prostate and melanoma lines most sensitive) was “inhibit the growth of a number of histologically diverse tumor cells” and the cell cycle effect ([4]; in vitro) was “arrested cells in the G1 phase of the cell cycle”. The “activity in orthotopic glioma model” value [5] was “active”, the “activity against human tumor xenografts” value ([5]; gliomas particularly sensitive) was “activity against human tumor xenografts of diverse histological types” and the “growth factor (platelet-derived)-induced stimulation of human glioblastoma cell line” value [6] was “markedly suppressed”.
